Results from ChEMBL document CHEMBL4184241, “2-Formyl-komarovicine promotes adiponectin production in human mesenchymal stem cells through PPARγ partial agonism” (Bioorg Med Chem, 2018).
The source made the active and inactive calls. The rule behind the calls is not given here.

Tests used:
Homo sapiens [1] = species on record: Homo sapiens; experiment: Induction of adipogenesis in human bone marrow-derived mesenchymal stem cells assessed as increase in adiponectin production at 1 uM measured on day 5 in presence of IDX by ELISA; assay type: functional
Homo sapiens [2] = species on record: Homo sapiens; experiment: Induction of adipogenesis in human bone marrow-derived mesenchymal stem cells assessed as increase in adiponectin production measured on day 5 in presence of IDX by ELISA; assay type: functional
Homo sapiens [3] = species on record: Homo sapiens; experiment: Induction of adipogenesis in human bone marrow-derived mesenchymal stem cells assessed as increase in lipid droplet accumulation at 30 uM measured on day 5 in presence of IDX by ORO staining based spectrophotometric analysis; assay type: functional
[4] = biological target: T1, Peroxisome proliferator-activated receptor gamma (Homo sapiens) (UniProt P37231); experiment: Displacement of fluormone Pan-PPAR Green from human GST-tagged PPARgamma-LBD at 10 uM by TR-FRET assay relative to control
T1 sequence (whole entry): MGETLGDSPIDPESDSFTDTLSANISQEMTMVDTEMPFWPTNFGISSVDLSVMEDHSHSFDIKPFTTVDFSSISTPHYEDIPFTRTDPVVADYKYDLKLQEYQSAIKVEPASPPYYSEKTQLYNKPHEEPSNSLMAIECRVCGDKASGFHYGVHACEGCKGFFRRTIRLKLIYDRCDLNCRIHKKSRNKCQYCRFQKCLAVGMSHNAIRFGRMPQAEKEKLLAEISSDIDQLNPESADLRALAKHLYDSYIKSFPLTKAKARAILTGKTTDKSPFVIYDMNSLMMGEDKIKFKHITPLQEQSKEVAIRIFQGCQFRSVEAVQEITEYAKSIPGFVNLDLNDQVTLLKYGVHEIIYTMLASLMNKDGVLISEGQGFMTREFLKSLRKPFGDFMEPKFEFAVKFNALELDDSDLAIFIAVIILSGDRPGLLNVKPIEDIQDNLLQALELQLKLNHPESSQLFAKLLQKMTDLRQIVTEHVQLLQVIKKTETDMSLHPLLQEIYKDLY

[5] = biological target: T2, Peroxisome proliferator-activated receptor alpha (Homo sapiens) (UniProt Q07869); experiment: Displacement of fluormone Pan-PPAR Green from human GST-tagged PPARalpha-LBD at 10 uM by TR-FRET assay
T2 sequence (whole entry): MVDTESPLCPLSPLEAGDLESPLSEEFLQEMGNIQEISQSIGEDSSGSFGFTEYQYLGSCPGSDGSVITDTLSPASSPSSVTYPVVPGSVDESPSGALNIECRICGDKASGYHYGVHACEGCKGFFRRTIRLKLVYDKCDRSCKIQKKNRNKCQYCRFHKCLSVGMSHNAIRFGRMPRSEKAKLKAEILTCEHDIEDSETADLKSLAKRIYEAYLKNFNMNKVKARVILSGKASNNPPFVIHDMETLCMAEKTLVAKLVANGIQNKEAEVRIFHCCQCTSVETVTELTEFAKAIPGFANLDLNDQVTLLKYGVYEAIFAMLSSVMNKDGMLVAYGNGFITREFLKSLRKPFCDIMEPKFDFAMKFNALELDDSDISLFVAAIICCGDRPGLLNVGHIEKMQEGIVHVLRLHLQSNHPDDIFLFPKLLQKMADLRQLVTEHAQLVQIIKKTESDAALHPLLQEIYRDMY

[6] = biological target: T3, Peroxisome proliferator-activated receptor delta (Homo sapiens) (UniProt Q03181); experiment: Displacement of fluormone Pan-PPAR Green from human GST-tagged PPARdelta-LBD at 10 uM by TR-FRET assay
T3 sequence (whole entry): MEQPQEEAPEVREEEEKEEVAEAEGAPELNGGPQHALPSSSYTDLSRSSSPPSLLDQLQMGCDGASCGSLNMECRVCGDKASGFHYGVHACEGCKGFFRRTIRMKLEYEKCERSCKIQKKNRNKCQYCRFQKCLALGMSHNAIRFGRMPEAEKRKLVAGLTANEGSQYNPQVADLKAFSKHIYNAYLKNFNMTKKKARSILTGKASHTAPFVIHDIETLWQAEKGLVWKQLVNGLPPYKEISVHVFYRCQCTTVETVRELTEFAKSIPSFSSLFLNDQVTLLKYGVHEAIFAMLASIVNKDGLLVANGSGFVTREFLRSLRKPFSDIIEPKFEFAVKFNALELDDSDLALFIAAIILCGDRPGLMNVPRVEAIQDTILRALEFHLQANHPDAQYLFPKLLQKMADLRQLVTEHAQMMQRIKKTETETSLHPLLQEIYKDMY

[7] = biological target: T4, Glucocorticoid receptor (Homo sapiens) (UniProt P04150); experiment: Displacement of fluormone GS1 from human GST-tagged glucocorticoid receptor-LBD at 10 uM by TR-FRET assay
T4 sequence (whole entry): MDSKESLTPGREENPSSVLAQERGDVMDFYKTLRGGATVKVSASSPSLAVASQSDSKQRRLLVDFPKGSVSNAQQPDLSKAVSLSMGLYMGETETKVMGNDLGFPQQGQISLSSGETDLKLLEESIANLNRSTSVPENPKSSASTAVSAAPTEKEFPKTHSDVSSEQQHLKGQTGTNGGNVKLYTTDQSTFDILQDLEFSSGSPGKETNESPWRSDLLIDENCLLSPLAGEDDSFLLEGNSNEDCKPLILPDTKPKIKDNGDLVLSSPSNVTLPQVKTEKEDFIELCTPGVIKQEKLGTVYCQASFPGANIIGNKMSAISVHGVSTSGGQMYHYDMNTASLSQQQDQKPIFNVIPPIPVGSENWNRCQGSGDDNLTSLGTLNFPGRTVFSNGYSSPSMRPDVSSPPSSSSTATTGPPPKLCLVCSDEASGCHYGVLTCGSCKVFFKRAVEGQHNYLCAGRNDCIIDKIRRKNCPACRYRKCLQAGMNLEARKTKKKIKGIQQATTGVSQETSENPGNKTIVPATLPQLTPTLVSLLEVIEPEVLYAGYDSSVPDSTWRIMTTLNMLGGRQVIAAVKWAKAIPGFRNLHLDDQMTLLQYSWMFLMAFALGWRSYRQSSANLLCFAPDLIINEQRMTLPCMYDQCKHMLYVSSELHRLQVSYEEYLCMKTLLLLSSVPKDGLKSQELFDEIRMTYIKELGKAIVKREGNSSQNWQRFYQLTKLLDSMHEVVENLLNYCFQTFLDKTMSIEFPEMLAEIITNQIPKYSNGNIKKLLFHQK

[8] = biological target: T5, Oxysterols receptor LXR-alpha (Homo sapiens) (UniProt Q13133); experiment: Transactivation of recombinant human GST-tagged LXRalpha-LBD at 10 uM by TR-FRET assay
T5 sequence (whole entry): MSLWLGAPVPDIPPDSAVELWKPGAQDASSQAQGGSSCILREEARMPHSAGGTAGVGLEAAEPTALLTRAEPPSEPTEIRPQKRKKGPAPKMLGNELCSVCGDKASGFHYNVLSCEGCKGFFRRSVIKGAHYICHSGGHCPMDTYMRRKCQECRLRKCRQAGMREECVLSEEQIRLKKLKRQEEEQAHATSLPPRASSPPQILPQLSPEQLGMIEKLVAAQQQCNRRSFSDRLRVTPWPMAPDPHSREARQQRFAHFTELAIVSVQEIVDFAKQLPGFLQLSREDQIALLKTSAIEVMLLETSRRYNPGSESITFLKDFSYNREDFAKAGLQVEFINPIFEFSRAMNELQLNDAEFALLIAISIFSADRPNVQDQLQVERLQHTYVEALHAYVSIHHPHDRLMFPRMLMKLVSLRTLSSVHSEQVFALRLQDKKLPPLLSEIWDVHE

[9] = biological target: T6, Oxysterols receptor LXR-beta (Homo sapiens) (UniProt P55055); experiment: Transactivation of LXRbeta (unknown origin) at 10 uM by TR-FRET assay
T6 sequence (whole entry): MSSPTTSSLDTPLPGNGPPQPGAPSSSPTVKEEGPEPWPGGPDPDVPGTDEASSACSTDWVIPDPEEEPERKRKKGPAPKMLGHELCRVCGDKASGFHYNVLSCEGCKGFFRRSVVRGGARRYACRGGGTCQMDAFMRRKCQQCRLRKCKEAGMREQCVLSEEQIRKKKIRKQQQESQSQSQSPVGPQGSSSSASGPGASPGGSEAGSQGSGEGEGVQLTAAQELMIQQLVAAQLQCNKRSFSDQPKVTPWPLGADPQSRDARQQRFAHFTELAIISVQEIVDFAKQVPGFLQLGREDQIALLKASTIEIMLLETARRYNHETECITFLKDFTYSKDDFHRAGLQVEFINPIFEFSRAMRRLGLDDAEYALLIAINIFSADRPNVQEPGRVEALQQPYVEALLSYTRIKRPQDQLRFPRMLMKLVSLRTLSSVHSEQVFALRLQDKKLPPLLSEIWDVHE

[10] = biological target: T7, Peroxisome proliferator-activated receptor gamma (Homo sapiens, UniProt P37231); experiment: Displacement of fluormone Pan-PPAR Green from human GST-tagged PPARgamma-LBD by TR-FRET assay
T7 sequence (P37231 whole entry): T1 sequence (whole entry)

[11] = biological target: T1, Peroxisome proliferator-activated receptor gamma (Homo sapiens); experiment: Partial agonist activity at PPARgamma in human bone marrow-derived mesenchymal stem cells assessed as inhibition of troglitazone-induced upregulation of PPARgamma mRNA level at 3 to 10 uM measured on day 3 in presence of IDX by qRT-PCR analysis
[12] = biological target: T1, Peroxisome proliferator-activated receptor gamma (Homo sapiens); experiment: Partial agonist activity at PPARgamma in human bone marrow-derived mesenchymal stem cells assessed as inhibition of troglitazone-induced upregulation of adiponectin mRNA level at 3 to 10 uM measured on day 3 in presence of IDX by qRT-PCR analysis
[13] = biological target: T1, Peroxisome proliferator-activated receptor gamma (Homo sapiens); experiment: Partial agonist activity at PPARgamma in human bone marrow-derived mesenchymal stem cells assessed as inhibition of troglitazone-induced upregulation of FABP4 mRNA level at 3 to 10 uM measured on day 3 in presence of IDX by qRT-PCR analysis
[14] = biological target: T1, Peroxisome proliferator-activated receptor gamma (Homo sapiens); experiment: Partial agonist activity at PPARgamma in human bone marrow-derived mesenchymal stem cells assessed as inhibition of troglitazone-induced increase in adiponectin level at 3 to 10 uM measured on day 5 in presence of IDX by ELISA
Homo sapiens [15] = species on record: Homo sapiens; experiment: Induction of adipogenesis in human bone marrow-derived mesenchymal stem cells assessed as increase in adiponectin production at 10 uM measured on day 5 in presence of IDX by ELISA; assay type: functional
Homo sapiens [16] = species on record: Homo sapiens; experiment: Induction of adipogenesis in human bone marrow-derived mesenchymal stem cells assessed as increase in adiponectin production at 60 uM measured on day 5 in presence of IDX by ELISA; assay type: functional
[17] = biological target: T1, Peroxisome proliferator-activated receptor gamma (Homo sapiens); experiment: Displacement of fluormone Pan-PPAR Green from human GST-tagged PPARgamma-LBD at 30 uM by TR-FRET assay relative to control
[18] = biological target: T2, Peroxisome proliferator-activated receptor alpha (Homo sapiens); experiment: Displacement of fluormone Pan-PPAR Green from human GST-tagged PPARalpha-LBD at 30 uM by TR-FRET assay
[19] = biological target: T3, Peroxisome proliferator-activated receptor delta (Homo sapiens); experiment: Displacement of fluormone Pan-PPAR Green from human GST-tagged PPARdelta-LBD at 30 uM by TR-FRET assay
[20] = biological target: T4, Glucocorticoid receptor (Homo sapiens); experiment: Displacement of fluormone GS1 from human GST-tagged glucocorticoid receptor-LBD at 30 uM by TR-FRET assay
[21] = biological target: T5, Oxysterols receptor LXR-alpha (Homo sapiens); experiment: Transactivation of recombinant human GST-tagged LXRalpha-LBD at 30 uM by TR-FRET assay
[22] = biological target: T6, Oxysterols receptor LXR-beta (Homo sapiens); experiment: Transactivation of LXRbeta (unknown origin) at 30 uM by TR-FRET assay
Homo sapiens [23] = species on record: Homo sapiens; experiment: Induction of adipogenesis in human bone marrow-derived mesenchymal stem cells assessed as increase in adiponectin production at 100 uM measured on day 5 in presence of IDX by ELISA; assay type: functional

Question: `Cc1c(C)c2c(c(C)c1O)CCC(C)(COc1ccc(CC3SC(=O)NC3=O)cc1)O2` (stereo not drawn) was tested. Which Activity (Homo sapiens [1]) did it give?
Answer: Active

Question: `O=CN1CCc2c([nH]c3ccccc23)C1c1cccc2cccnc12` (stereo not drawn) was tested. Which Activity (Homo sapiens [2]) did it give?
Answer: Dose-dependent effect

Question: What about the Activity (Homo sapiens [3]) of the same molecule?
Answer: Active

Question: And the Activity [4]?
Answer: 58%

Question: What about the Activity [5] of the same molecule?
Answer: inactive

Question: And the Activity [6]?
Answer: inactive

Question: And the Activity [7]?
Answer: inactive

Question: And the Activity [8]?
Answer: inactive

Question: And the Activity [9]?
Answer: inactive

Question: What about the Ki [10] of the same molecule?
Answer: 7.1 µM

Question: What about the inhibition [11] of the same molecule?
Answer: Active

Question: What about the inhibition [12] of the same molecule?
Answer: Active

Question: And the inhibition [13]?
Answer: Active

Question: And the inhibition [14]?
Answer: Active

Question: How did the Activity (Homo sapiens [15]) turn out when `COc1ccc(Cl)cc1C(=O)NCCc1ccc(S(=O)(=O)NC(=O)NC2CCCCC2)cc1` was run?
Answer: Active

Question: Which Activity (Homo sapiens [16]) does the source give for `c1cnc2c(C3NCCc4c3[nH]c3ccccc43)cccc2c1` (stereo not drawn) here?
Answer: Active

Question: And the Activity [17]?
Answer: 24 to 36%

Question: And the Activity [18]?
Answer: inactive

Question: What about the Activity [19] of the same molecule?
Answer: inactive

Question: And the Activity [20]?
Answer: inactive

Question: And the Activity [21]?
Answer: inactive

Question: And the Activity [22]?
Answer: inactive

Question: `CC(=O)Oc1ccccc1C(=O)O` was tested. Which Activity (Homo sapiens [23]) did it give?
Answer: Active
